Here are results for 27 compounds from PubChem BioAssay AID330 (DTP/NCI, 2004).

The subject of the test is P388 leukemia ip, CD2F1 mice, survival T/C. Kind of test: NCI In Vivo Anticancer Drug Screen. Data for tumor model P388 Leukemia (intraperitoneal) in CD2F1 (CDF1) mice. The settings on record: endpoint: median survival time, higher = longer survival. The gist of the method: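 Mice carrying the transplanted tumor received test compound or vehicle. Survival was recorded in each group, and the value is the treated-group measurement divided by that of the vehicle-treated control group.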

Where [1] appears, read: dose: 100.0 mg/kg/injection, schedule: Q01DX009 (ip), vehicle: Klucel (hydroxypropylcellulose) (HPC).
Setting [2] is: dose: 50.0 mg/kg/injection, schedule: Q04DX002 (ip), vehicle: saline with Tween-80.
Where [3] appears, read: dose: 100.0 mg/kg/injection, schedule: Q04DX002 (ip), vehicle: saline with Tween-80.
Setting [4] is: dose: 200.0 mg/kg/injection, schedule: Q04DX002 (ip), vehicle: saline with Tween-80.
Setting [5] is: dose: 60.0 mg/kg/injection, schedule: Q01DX005 (ip), vehicle: saline with Tween-80.
Setting [6] is: dose: 120.0 mg/kg/injection, schedule: Q01DX005 (ip), vehicle: saline with Tween-80.
[7] abbreviates: dose: 240.0 mg/kg/injection, schedule: Q01DX005 (ip), vehicle: saline with Tween-80.
The mark [8] stands for this setting: dose: 50.0 mg/kg/injection, schedule: Q01DX005 (ip), vehicle: saline.
[9] abbreviates: dose: 100.0 mg/kg/injection, schedule: Q01DX005 (ip), vehicle: saline.
Setting [10] is: dose: 200.0 mg/kg/injection, schedule: Q01DX005 (ip), vehicle: saline.
The mark [11] stands for this setting: dose: 60.0 mg/kg/injection, schedule: Q01DX005 (ip), vehicle: saline.
The mark [12] stands for this setting: dose: 120.0 mg/kg/injection, schedule: Q01DX005 (ip), vehicle: saline.
Setting [13] is: dose: 50.0 mg/kg/injection, schedule: Q01DX005 (ip), vehicle: Klucel (hydroxypropylcellulose) (HPC).
The mark [14] stands for this setting: dose: 100.0 mg/kg/injection, schedule: Q01DX005 (ip), vehicle: Klucel (hydroxypropylcellulose) (HPC).
Where [15] appears, read: dose: 50.0 mg/kg/injection, schedule: Q01DX009 (ip), vehicle: saline with Tween-80.
Setting [16] is: dose: 100.0 mg/kg/injection, schedule: Q01DX009 (ip), vehicle: saline with Tween-80.
The mark [17] stands for this setting: dose: 50.0 mg/kg/injection, schedule: Q01DX005 (ip), vehicle: saline with Tween-80.
Where [18] appears, read: dose: 100.0 mg/kg/injection, schedule: Q01DX005 (ip), vehicle: saline with Tween-80.
Where [19] appears, read: dose: 200.0 mg/kg/injection, schedule: Q01DX005 (ip), vehicle: saline with Tween-80.
The mark [20] stands for this setting: dose: 400.0 mg/kg/injection, schedule: Q04DX002 (ip), vehicle: saline with Tween-80.

Several values for one entry are separate records, joined by “and”; a condition that tells them apart may be missing. Identical values can stand only once. Inconclusive results and toxic doses are left out.

On to `O=c1oc(-c2cccc(F)c2)ns1`, for which the T/C under setting [1] was 115 % of control; the T/C (dose: 200.0 mg/kg/injection, schedule: Q01DX009 (ip), vehicle: Klucel (hydroxypropylcellulose) (HPC)) is 116 % of control; the T/C (dose: 400.0 mg/kg/injection, schedule: Q01DX009 (ip), vehicle: Klucel (hydroxypropylcellulose) (HPC)) was 115 % of control.

Turning to `[Ni+2].[O-]/C(=N\N=C\c1ccccn1)c1ccccc1O.[O-]/C(=N\N=C\c1ccccn1)c1ccccc1O`, the T/C was 98 % of control under setting [2], 101 % of control under setting [3] and 89 % of control under setting [4].

For `COC(=O)[CH](C[N+](=O)[O-])[Hg][Cl]` (stereo not given), the T/C is 100 % of control (dose: 3.12 mg/kg/injection, schedule: Q01DX009 (ip), vehicle: saline with Tween-80); 100 % of control (dose: 6.25 mg/kg/injection, schedule: Q01DX009 (ip), vehicle: saline with Tween-80); 95 % of control (dose: 12.5 mg/kg/injection, schedule: Q01DX009 (ip), vehicle: saline with Tween-80).

For `CC(C)CN1C(=O)C2C3CCC(O3)C2C1=O` (stereo not given), the T/C runs as follows: under setting [5], 91 % of control; under setting [6], 91 % of control; under setting [7], 91 % of control.

For the compound `CC(O)CCC1CCCCN1` (stereo not given), the T/C was 109 % of control under setting [8], 100 % of control under setting [9] and 101 % of control under setting [10].

Regarding `COC1(CO)C(=O)N(C)CC(=O)N1C` (stereo not given), the T/C runs as follows: under setting [11], 106 % of control; under setting [12], 106 % of control.

Regarding `C=C1N(C)c2ccccc2C1(C)C`, the T/C is, setting by setting: (dose: 4.0 mg/kg/injection, schedule: Q01DX009 (ip), vehicle: saline with Tween-80) 113 % of control; (dose: 5.9 mg/kg/injection, schedule: Q01DX009 (ip), vehicle: saline with Tween-80) 123 % of control; (dose: 9.0 mg/kg/injection, schedule: Q01DX009 (ip), vehicle: saline with Tween-80) 110 % of control; (dose: 13.0 mg/kg/injection, schedule: Q01DX009 (ip), vehicle: saline with Tween-80) 108 % of control and 118 % of control; (dose: 19.0 mg/kg/injection, schedule: Q01DX009 (ip), vehicle: saline with Tween-80) 106 % of control; (dose: 29.0 mg/kg/injection, schedule: Q01DX009 (ip), vehicle: saline with Tween-80) 109 % of control. Also, the T/C (dose: 45.0 mg/kg/injection, schedule: Q01DX009 (ip), vehicle: saline with Tween-80) is 115 % of control.

With `CC12CCC3c4ccc(O)cc4CCC3C1CCC2(O)CN1CCCCC1` (stereo not given), the T/C under setting [13] is 96 % of control and the T/C under setting [14] is 91 % of control.

For the compound `NNC(=O)c1ccccc1O`, the T/C was 100 % of control under setting [15] and 100 % of control under setting [16].

In the case of `CC(NCc1ccccc1)[Si](C)(C)C` (stereo not given), the T/C reads like this: under setting [17], 102 % of control; under setting [18], 105 % of control.

Regarding `O=P(OCC(F)(F)F)(c1ccccc1)c1ccccc1`, the T/C under setting [17] was 108 % of control, the T/C under setting [18] is 104 % of control and the T/C under setting [19] is 112 % of control.

Turning to `C#CC1OCCCO1`, the T/C is, setting by setting: under setting [11], 100 % of control; under setting [12], 106 % of control.

As to `CN(c1ccc(Cc2ccc(N(C)S(C)(=O)=O)cc2)cc1)S(C)(=O)=O`, the T/C is, setting by setting: under setting [2], 110 % of control; under setting [3], 101 % of control; under setting [4], 94 % of control; under setting [20], 92 % of control.

Take `NC(=S)c1ccc(N=Cc2ccccc2)cc1`: the T/C (dose: 12.5 mg/kg/injection, schedule: Q01DX001 (ip), vehicle: Klucel (hydroxypropylcellulose) (HPC)) was 101 % of control; the T/C (dose: 25.0 mg/kg/injection, schedule: Q01DX001 (ip), vehicle: Klucel (hydroxypropylcellulose) (HPC)) is 101 % of control; the T/C (dose: 50.0 mg/kg/injection, schedule: Q01DX001 (ip), vehicle: Klucel (hydroxypropylcellulose) (HPC)) is 95 % of control.

On to `CCCCC1NNC(CCCC)NN1` (stereo not given), for which the T/C by setting is: (dose: 50.0 mg/kg/injection, schedule: Q01DX009 (ip), vehicle: Klucel (hydroxypropylcellulose) (HPC)) 104 % of control; under setting [1], 104 % of control.

In the case of `COC(=O)[C@@]12OC[C@@]34[C@@H](CC5=C(C)C(=O)C(O)=C[C@]5(C)[C@H]3[C@@H](O)[C@@H]1O)OC(=O)[C@H](OC(=O)/C=C(\C)C(C)(C)OC(C)=O)[C@@H]24`, the T/C was 106 % of control (dose: 0.25 mg/kg/injection, schedule: Q01DX009 (ip), vehicle: saline + alcohol); 110 % of control and 123 % of control (dose: 0.5 mg/kg/injection, schedule: Q01DX009 (ip), vehicle: saline + alcohol); 157 % of control and 159 % of control (dose: 4.0 mg/kg/injection, schedule: Q01DX009 (ip), vehicle: saline + alcohol); 175 % of control (dose: 8.0 mg/kg/injection, schedule: Q01DX009 (ip), vehicle: saline + alcohol).

As for `CCOC1CC(C)(O)C(C(=O)OC)c2cc3c(c(O)c21)C(=O)c1c(O)cc2c(c1C3=O)OC1OC2(C)C(O)C(N(C)C)C1O` (stereo not given), the T/C (dose: 3.16 mg/kg/injection, schedule: Q01DX009 (ip), vehicle: other) was 151 % of control; the T/C (dose: 6.25 mg/kg/injection, schedule: Q01DX009 (ip), vehicle: other) is 161 % of control; the T/C (dose: 12.5 mg/kg/injection, schedule: Q01DX009 (ip), vehicle: other) is 171 % of control.

For `COc1ccc2c(c1)CCn1c(C)c(COC(=O)NC(C)C)c(COC(=O)NC(C)C)c1-2`, the T/C was 153 % of control and 160 % of control (dose: 12.5 mg/kg/injection, schedule: Q01DX009 (ip), vehicle: distilled water + Tween-80); 153 % of control and 164 % of control (dose: 25.0 mg/kg/injection, schedule: Q01DX009 (ip), vehicle: distilled water + Tween-80).

Take `CCCCCCC(=O)/C=C/c1ccc(F)cc1`: the T/C is, setting by setting: under setting [17], 101 % of control; under setting [18], 106 % of control; under setting [19], 100 % of control.

`C#CC(C)(O)C(O)c1ccccc1` (stereo not given): the T/C by setting is: under setting [15], 98 % of control; under setting [16], 109 % of control; (dose: 200.0 mg/kg/injection, schedule: Q01DX009 (ip), vehicle: saline with Tween-80) 96 % of control.

For `CC(CN(C)C)OC(=O)c1ccc(Cl)cc1Cl` (stereo not given), the T/C is 100 % of control under setting [8], 98 % of control under setting [9] and 100 % of control under setting [10].

With `NC(=O)c1nnn(-c2ccccc2)n1`, the T/C (dose: 100.0 mg/kg/injection, schedule: Q04DX003 (ip), vehicle: Klucel (hydroxypropylcellulose) (HPC)) was 105 % of control; the T/C (dose: 200.0 mg/kg/injection, schedule: Q04DX003 (ip), vehicle: Klucel (hydroxypropylcellulose) (HPC)) was 99 % of control; the T/C (dose: 400.0 mg/kg/injection, schedule: Q04DX003 (ip), vehicle: Klucel (hydroxypropylcellulose) (HPC)) is 89 % of control.

On to `Nc1ncnc2nc(N=Nc3c(O)ccc4ccccc34)[nH]c12`, for which the T/C was 104 % of control under setting [17] and 93 % of control under setting [18].

Regarding `Cc1cc(=O)[nH]c2c1C(=O)c1c(C)cc(=O)n(C)c1C2=O`, the T/C is, setting by setting: (dose: 0.5 mg/kg/injection, schedule: Q01DX009 (ip), vehicle: DMSO) 99 % of control and 97 % of control; (dose: 1.0 mg/kg/injection, schedule: Q01DX009 (ip), vehicle: DMSO) 90 % of control; (dose: 2.0 mg/kg/injection, schedule: Q01DX009 (ip), vehicle: DMSO) 91 % of control; (dose: 4.0 mg/kg/injection, schedule: Q01DX009 (ip), vehicle: DMSO) 108 % of control.

As to `NC(=O)CCC(NS(=O)(=O)c1ccc(NC(=O)c2ccc(Cl)cc2)cc1)C(=O)O` (stereo not given), the T/C runs as follows: under setting [13], 104 % of control; under setting [14], 102 % of control; (dose: 200.0 mg/kg/injection, schedule: Q01DX005 (ip), vehicle: Klucel (hydroxypropylcellulose) (HPC)) 102 % of control.

Take `Cc1ccc(N=Nc2c(O)n(-c3ccc(C)cc3)c(=S)n(-c3ccc(Br)cc3)c2=O)cc1`: the T/C under setting [3] is 99 % of control, the T/C under setting [4] is 102 % of control and the T/C under setting [20] was 105 % of control.

Turning to `Cc1cc2c(cc1C)NC1=C(N2)OC(c2ccc(Cl)cc2)C1=O` (stereo not given), the T/C was 92 % of control under setting [5], 89 % of control under setting [6] and 92 % of control under setting [7].
